Assay results taken from patent US20250255889A1, “METHODS FOR TREATMENT SELECTION FOR CHRONIC LYMPHOCYTIC LEUKEMIA (CLL)” (The Broad Institute, Inc., priority 2022, published 2025).

System: primary CLL samples (CD19+ and CD5+ cells)
Experiment: High-throughput dynamic BH3 profiling (HT-DBP): drug-induced apoptotic priming (delta priming), cytochrome c release after BH3 peptide
Format: cell-based, human
Method: By “delta priming” is meant the difference in priming of a cell for apoptosis measured in the presence of an agent for treating chronic lymphocytic leukemia relative to priming of the cell in the presence of an inert carrier. In embodiments, the inert carrier is DMSO.
Dynamic BH3 Profiling Dynamic BH3 profiling (DBP) is a drug screening assay that measures the relative priming of cells in a biological sample for cell death by apoptosis in the presence of a specific compound and/or a pro-apoptotic peptide. By “Dynamic BH3 profiling” is meant measuring drug-induced changes in mitochondrial apoptotic priming. Mitochondrial apoptotic priming is a measure of how close to the apoptotic threshold a cell is. A highly primed cell has relatively less anti-apoptotic binding site availability and is closer to the apoptotic threshold than a poorly primed cell, which has more anti-apoptotic availability to buffer an apoptotic assault and is further from the apoptotic threshold. BH3 peptides derived from the BH3 domain of pro-apoptotic BH3-only proteins provoke a response from viable mitochondria. Cytochrome c released from the mitochondria after a short incubation with BH3 peptide is used as a surrogate for priming. In general, the more sensitive a mitochondrion is to a BH3 peptide, the more primed it is. A drug treatment that enhances priming will cause mitochondria to undergo MOMP more easily when incubated with a fixed concentration of a promiscuously binding BH3 peptide, such as BIM BH3 peptide, compared to control-treated cells. See, for example, Potter, D. S. & Letai, A. To prime, or not to prime: that is the question. Cold Spring Harb. Symp. Quant. Biol. 81, 131-140 (2016); Montero, J. et al. Drug-induced death signaling strategy rapidly predicts cancer response to chemotherapy. Cell 160, 977-989 (2015); Daniels, V. W. et al. Metabolic perturbations sensitize triple-negative breast cancers to apoptosis induced by BH3 mimetics. Sci.
Dynamic BH3 profiling and peptides for use therein are described, for example, in Certo, et al., “Mitochondria primed by death signals determine cellular addiction to antiapoptotic BCL-2 family members,” Cancer Cell, 9:351-365 (2006); and in Foight, et al. “Designed BH3 Peptides with High Affinity and Specificity for Targeting Mcl-1 in Cells,” ACS Chemical Biology, 9:1962-1968 (2014), the disclosures of which are incorporated herein by reference in their entireties for all purposes. The DBP assay enables one to compare the response of a patient tumor sample to a specific drug relative to other drugs and relative to an inert control (e.g., DMSO).
To address the challenge of selecting a proper treatment for a chronic lymphocytic leukemia, experiments were undertaken to optimize high-throughput dynamic BH3 profiling (HT-DBP) for evaluation of the drug sensitivities of CLL samples (FIGS. 1, 13, 5A, 5B, 6A, 6B, and 7A-7C).

[1] = peptide PUMA 1 uM, feature EC-m2
[2] = peptide PUMA 1 uM, feature loss_6q21
[3] = peptide BAD 0.3 uM, feature EC-i
[4] = peptide BAD 0.3 uM, feature loss_1q42.13
[5] = peptide BAD 0.3 uM, feature loss_7p22.2
[6] = peptide BAD 0.3 uM, feature loss_14q32.12
[7] = peptide BAD 0.3 uM, feature loss_16p11.2
[8] = peptide MS1 2.5 uM, feature CNOT3
[9] = peptide PUMA 1 uM, feature loss_7p22.2
[10] = peptide BIM 0.01 uM, feature EC-m2
[11] = peptide BIM 0.01 uM, feature loss_17q23.1
[12] = peptide MS1 2.5 uM, feature ITIH2
[13] = peptide BIM 0.01 uM, feature FBXW7
[14] = peptide BIM 0.01 uM, feature gain_19p13.3
[15] = peptide MS1 2.5 uM, feature BIRC3
[16] = peptide MS1 2.5 uM, feature loss_9p21.3
[17] = peptide MS1 2.5 uM, feature loss_17q11.2
[18] = peptide PUMA 1 uM, feature gain_7q22.1
[19] = peptide PUMA 1 uM, feature loss_14q32.12

Cc1c(-c2ccc(N3CCc4cccc(C(=O)Nc5nc6ccccc6s5)c4C3)nc2C(=O)O)cnn1CC12CC3CC(CC(C3)C1)C2 [A-1331852]
direction (Feature EC-m2): Resistant
direction (peptide BAD 0.3 uM, feature CNOT3): Sensitive
direction (peptide BIM 0.01 uM, feature CARD11): Resistant
direction (peptide BIM 0.01 uM, feature EC-u2): Sensitive
direction (peptide BIM 0.01 uM, feature MYD88): Resistant
direction (peptide PUMA 1 uM, feature CNOT3): Sensitive
direction [1]: Resistant
direction [2]: Resistant

Cc1c2c(nn1C)CSCc1cc(n(C)n1)CSc1cc(c3ccccc3c1)OCCCc1c(C(=O)O)n(C)c3c-2c(Cl)ccc13 [AZD5991]
direction (Feature EC-i): Sensitive
direction (Feature loss_3p13): Sensitive
direction [3]: Sensitive
direction (peptide BAD 0.3 uM, feature POT1): Sensitive
direction [4]: Sensitive
direction [5]: Sensitive
direction [6]: Sensitive
direction [7]: Sensitive
direction (peptide BIM 0.01 uM, feature ANK1): Sensitive
direction (peptide BIM 0.01 uM, feature loss_1p36.11): Sensitive
direction (peptide BIM 0.01 uM, feature loss_3p13): Sensitive
direction (peptide BIM 0.01 uM, feature loss_15q26.1): Sensitive
direction (peptide BIM 0.01 uM, feature loss_18q21.2): Sensitive
direction [8]: Sensitive
direction (peptide PUMA 1 uM, feature BIRC3): Sensitive
direction (peptide PUMA 1 uM, feature EC-i): Sensitive
direction (peptide PUMA 1 uM, feature loss_1q42.13): Sensitive
direction [9]: Sensitive
direction (peptide PUMA 1 uM, feature loss_9p21.3): Sensitive
direction (peptide PUMA 1 uM, feature loss_16p11.2): Sensitive
direction (peptide PUMA 1 uM, feature loss_17q11.2): Sensitive

COc1ccc(-c2ccc3c(N4CCOC[C@@H]4C)nc(N4CCOC[C@@H]4C)nc3n2)cc1CO [AZD8055]
direction (peptide MS1 2.5 uM, feature IGLV321_R110): Resistant
direction (peptide MS1 2.5 uM, feature NOTCH1): Resistant
direction (peptide MS1 2.5 uM, feature RPS15): Resistant
direction (peptide MS1 2.5 uM, feature loss_1p36.11): Resistant
direction (peptide MS1 2.5 uM, feature loss_3p13): Resistant
direction (peptide MS1 2.5 uM, feature loss_6q): Resistant
direction (peptide MS1 2.5 uM, feature loss_18q21.2): Resistant

CN(C)Cc1c(C(=O)NCCOc2ccc(C(=O)NO)cc2)oc2ccccc12 [Abexinostat]
drug-induced apoptotic priming (across CLL subtypes, 65 primary CLL samples, 20 hours drug): high priming
efficacy by DBP response (cases where patients would be likely resistant to Nutlin 3, MK-2206 and Zanubrutinib): effective
direction (peptide BAD 0.3 uM, feature EC-m2): Sensitive
direction (peptide BIM 0.01 uM, feature CNOT3): Sensitive
direction [10]: Sensitive
direction [11]: Sensitive
direction (peptide BIM 0.01 uM, feature priortrt_Post): Sensitive
direction (peptide MS1 2.5 uM, feature FBXW7): Sensitive
direction [12]: Sensitive
direction (peptide MS1 2.5 uM, feature priortrt_Post): Sensitive
direction [1]: Sensitive
direction [2]: Sensitive
direction (peptide PUMA 1 uM, feature loss_17q23.1): Sensitive

CC(C)c1c(C(=O)Nc2ccccc2)c(-c2ccccc2)c(-c2ccc(F)cc2)n1CC[C@@H](O)C[C@@H](O)CC(=O)O [Atorvastatin]
direction (peptide BAD 0.3 uM, feature EC-u1): Sensitive
direction (peptide BAD 0.3 uM, feature FBXW7): Sensitive
direction (peptide BAD 0.3 uM, feature M-CLL): Resistant
direction (peptide BAD 0.3 uM, feature RFX7): Sensitive
direction (peptide BAD 0.3 uM, feature U-CLL): Sensitive
direction (peptide BAD 0.3 uM, feature ZMYM3): Sensitive
direction (peptide BAD 0.3 uM, feature gain_19p13.3): Sensitive
direction (peptide BAD 0.3 uM, feature m-CLL): Resistant
direction (peptide BAD 0.3 uM, feature n-CLL): Sensitive
direction (peptide BIM 0.01 uM, feature EC-u1): Resistant
direction [13]: Resistant
direction (peptide BIM 0.01 uM, feature RFX7): Resistant
direction (peptide BIM 0.01 uM, feature ZMYM3): Resistant
direction [14]: Resistant
direction (peptide BIM 0.01 uM, feature loss_2q31.1): Resistant
direction (peptide BIM 0.01 uM, feature loss_10p12.2): Resistant
direction (peptide BIM 0.01 uM, feature loss_10q24.2): Resistant
direction (peptide BIM 0.01 uM, feature n-CLL): Resistant
direction (peptide MS1 2.5 uM, feature RFX7): Resistant
direction (peptide MS1 2.5 uM, feature ZMYM3): Resistant
direction (peptide MS1 2.5 uM, feature loss_2q31.1): Resistant
direction (peptide MS1 2.5 uM, feature loss_10p12.2): Resistant
direction (peptide MS1 2.5 uM, feature loss_10q24.2): Resistant
direction (peptide MS1 2.5 uM, feature loss_11q22.3): Resistant
direction (peptide MS1 2.5 uM, feature n-CLL): Resistant
direction (peptide PUMA 1 uM, feature FBXW7): Resistant
direction (peptide PUMA 1 uM, feature RFX7): Resistant
direction (peptide PUMA 1 uM, feature ZMYM3): Resistant
direction (peptide PUMA 1 uM, feature gain_16p11.2): Resistant
direction (peptide PUMA 1 uM, feature loss_2q31.1): Resistant
direction [9]: Resistant
direction (peptide PUMA 1 uM, feature loss_10p12.2): Resistant

Nc1ncn([C@@H]2O[C@H](CO)[C@@H](O)[C@H]2O)c(=O)n1 [Azacitidine]
direction (Feature CARD11): Sensitive
direction (peptide BAD 0.3 uM, feature CARD11): Sensitive
direction (peptide BAD 0.3 uM, feature MYD88): Sensitive
direction (peptide BAD 0.3 uM, feature loss_19p13.11): Sensitive
direction (peptide BIM 0.01 uM, feature BIRC3): Resistant
direction [13]: Resistant
direction (peptide BIM 0.01 uM, feature ITIH2): Resistant
direction [14]: Resistant
direction (peptide BIM 0.01 uM, feature loss_9p21.3): Resistant
direction (peptide BIM 0.01 uM, feature loss_17q11.2): Resistant
direction [15]: Sensitive
direction [12]: Sensitive
direction [16]: Sensitive
direction [17]: Sensitive
direction (peptide MS1 2.5 uM, feature loss_19p13.11): Sensitive
direction (peptide PUMA 1 uM, feature CARD11): Sensitive

Cn1c(CCCC(=O)O)nc2cc(N(CCCl)CCCl)ccc21 [Bendamustine]
direction (Feature loss_5p15.33): Sensitive
direction (Feature loss_7p22.2): Sensitive
direction (Feature loss_12p13.31a): Sensitive
direction (Feature loss_14q32.12): Sensitive
direction [3]: Sensitive
direction [4]: Sensitive
direction (peptide BAD 0.3 uM, feature loss_5p15.33): Sensitive
direction [5]: Sensitive
direction (peptide BAD 0.3 uM, feature loss_12p13.31a): Sensitive
direction [6]: Sensitive
direction [7]: Sensitive
direction [15]: Sensitive
direction [8]: Sensitive
direction [16]: Sensitive
direction [17]: Sensitive
direction [18]: Sensitive
direction [19]: Sensitive

CC(C)C[C@H](NC(=O)[C@H](CCc1ccccc1)NC(=O)CN1CCOCC1)C(=O)N[C@@H](Cc1ccccc1)C(=O)N[C@@H](CC(C)C)C(=O)[C@@]1(C)CO1 [Carfilzomib]
direction [10]: Sensitive
direction [11]: Sensitive
direction (peptide PUMA 1 uM, feature MYD88): Sensitive
direction [18]: Sensitive
direction (peptide PUMA 1 uM, feature i-CLL): Sensitive
direction (peptide PUMA 1 uM, feature loss_3p21.31): Sensitive
direction [19]: Sensitive
